Molecules are shown by their SMILES. Where only a bound is given, the exact number is not on record here.

Ki data for 16 compounds are collected here from patent US20070099927A1, “Aminoalkyl-pyrazinones and-pyridones as thrombin inhibitors” (priority 2003, published 2007).

The assay deals with thrombin (Homo sapiens, UniProt P00734). The assay is described as follows: Ki determinations thrombin, fluorogenic substrate Tosyl-GPR-AMC. It counts as biochemical. The note with it: 20° C., thrombin 100 pM, Tosyl-GPR-AMC 20 μM, HBS pH 7.4; Ki class. As to the method: The Ki determinations were carried out at 20° C. with the fluorogenic substrate Tosyl-GPR-AMC (Bachem, Heidelberg, Germany; λexc=370 nm, λem=450 nm) at a thrombin concentration of 100 pM in HBS pH 7.4. The substrate was added to a final concentration of 20 μM in a total assay volume of 100 μl. The enzymatic reaction was started by addition of substrate. The emission at 450 nm was monitored in 1 minute intervals for 10 minutes using a polarstar reader (BMG Laboratories, Offenburg, Germany). Initial velocities of the control and the inhibited reactions (vo and vi) were estimated in FU/min at different compound concentrations. The inhibition constants were calculated using the Michaelis-Menten equation for competitive inhibition.
One may read the Ki as the dissociation constant of the complex between target and ligand, obtained from inhibition or displacement. Regarding `Cc1cnc(NCC(F)(F)C2CCCCN2)c(=O)n1CCNCc1n[nH]c2ccc(Cl)cc12` (single isomer, unassigned) [85 (E1)], the Ki is < 0.005 µM.
As for `Cc1cnc(NCCC2CCCCN2C)c(=O)n1CCNCc1n[nH]c2ccc(Cl)cc12` (single isomer, unassigned) [95 (E1), 1-{2-[(5-Chloro-1H-indazol-3-ylmethyl)-amino]-ethyl}-6-methyl-3-[2-(1-methyl-piperidin-2-yl)-ethylamino]-1H-pyrazin-2-one], the figure is < 0.005 µM; as for `Cc1cnc(NCCC2CCCCN2C)c(=O)n1CCNCc1n[nH]c2ccc(Cl)cc12` (single isomer, unassigned) [95 (E2), 1-{2-[(5-Chloro-1H-indazol-3-ylmethyl)-amino]-ethyl}-6-methyl-3-[2-(1-methyl-piperidin-2-yl)-ethylamino]-1H-pyrazin-2-one], < 0.005 µM.
Turning to `O=c1c(NCCC2CCCCN2)ncc(Cl)n1CCNCc1n[nH]c2ccc(Cl)cc12` (single isomer, unassigned) [101 (E2), 6-Chloro-1-{2-[(5-chloro-1H-indazol-3-ylmethyl)-amino]-ethyl}-3-(2-piperidin-2-yl-ethylamino)-1H-pyrazin-2-one], the Ki is < 0.005 µM.
As for `Cc1nc(N)ccc1CNCCn1c(Cl)cnc(NCC(F)(F)c2ccccn2)c1=O` [Example 52], the figure is 0.03 to 0.2 µM; as for `Cc1cnc(NCCNc2ccccn2)c(=O)n1CCNCc1cccc(Cl)c1` [Example 56], 0.03 to 0.2 µM.
As for `Cc1cnc(NC(Cc2ccccc2)C(N)=O)c(=O)n1CCNCCc1cccc(Cl)c1` (stereo not shown) [Example 59], the figure is 0.03 to 0.2 µM; as for `O=c1c(NCC(F)(F)c2ccccn2)ncc(Cl)n1CCNCc1n[nH]c2ccc(Cl)cc12` [Example 74], < 0.005 µM; as for `O=c1c(NCC(F)(F)c2cccc[n+]2[O-])ncc(Cl)n1CCNCc1n[nH]c2ccc(Cl)cc12` [Example 82], < 0.005 µM.
Take `O=c1c(NCC(F)(F)c2cccc[n+]2[O-])ncc(Cl)n1CCNCCc1cccc(Cl)c1` [Example 83]: the Ki was < 0.005 µM.
As for `Cc1nc(N)ccc1CNCCn1c(Cl)cnc(NCC(F)(F)c2cccc[n+]2[O-])c1=O` [Example 84], the figure is 0.005 to 0.03 µM; as for `O=c1c(NCCc2ccccn2)ncc(Cl)n1CCNCc1n[nH]c2ccc(Cl)cc12` [Example 92], < 0.005 µM.
The same measure for `NC(=O)CN1CCCCC1CCNc1ncc(Cl)n(CCNCc2n[nH]c3ccc(Cl)cc23)c1=O` (stereo not shown) [Example 96, 2-{2-[2-(5-Chloro-4-{2-[(5-chloro-1H-indazol-3-ylmethyl)amino]-ethyl}-3-oxo-3,4-dihydro-pyrazin-2-ylamino)-ethyl]-piperidin-1-yl}-acetamide]: 0.005 to 0.03 µM; for `O=C(O)CN1CCCCC1CCNc1ncc(Cl)n(CCNCc2n[nH]c3ccc(Cl)cc23)c1=O` (stereo not shown) [Example 97, {2-[2-(5-Chloro-4-{2-[(5-chloro-1H-indazol-3-ylmethyl)-amino]-ethyl}-3-oxo-3,4-dihydro-pyrazin-2-ylamino)-ethyl]-piperidin-1-yl}acetic acid]: < 0.005 µM.
The same measure for `Cc1cnc(NCCc2ccccn2)c(=O)n1CCNCCc1nc2ccc(Cl)cc2[nH]1` [Example 99]: 0.03 to 0.2 µM; for `Cc1cnc(NCCC2CCCCN2)c(=O)n1CCNCc1cccc(Cl)c1` (stereo not shown) [Example 102]: 0.005 to 0.03 µM.
